Key:
[1] = system: pathogenic fungi in the postharvest storage of citrus fruits; test: preservation of citrus in postharvest storage (infection index); format: in vivo, citrus reticulata blanco cv.shiyueju; conditions: soaked 5 minutes, stored at 25° C. for 15 days
Protocol: Experiment of the trisaccharide ester extract obtained in embodiment 2 in the preservation of citrus in postharvest storage Samples for the experiment: the trisaccharide ester extract (containing the compounds 1 to 4, with a mass ratio of about 60:35:4:1) obtained in embodiment 2 was dissolved in a small volume of ethanol and diluted with water to give treating solutions (200, 400 and 600 mg/L). The citrus fruits were soaked in the treating solutions for 5 minutes and left to dry. The fruits were then put in plastic baskets (the plastic baskets were surface-sterilized with 75% ethanol and left to dry in advance), sealed in polyethylene bags with a thickness of 0.02 mm, and stored at 25° C. for 15 days. The fruits were observed and their infection indexes were recorded. Calculation of the infection index: infection index=Σ(infection level×amount of fruits of the level)/([…]×total amount of fruits)×100%; infection level: 0 refers to “no obvious infection”, 1 refers to “slight infection”, 2 refers to “infection area smaller than or equal to ¼ of fruit surface”; 3 refers to “infection area larger than ¼ and smaller than ½ of fruit surface”, and 4 refers to “infection area larger than or equal to ½ of fruit surface”. Three replicates were set for each treating solution, and 60 fruits for each replicate. Fruits for the experiments: citrus reticulata blanco cv.shiyueju, harvested from Conghua Orchard.

Alternaria solani = test: agar diffusion test, in vitro inhibitory activity; format: cell-based; conditions: 500 μg per 6 mm filter paper, PDA, 28° C., 72 or 96 hours
Text: (§1) Experiment of in vitro inhibitory activities of the trisaccharide ester compounds 1 to 5 obtained in embodiment 2 against common plant pathogenic fungi of twelve genus.
(§2) The fungi used in the experiments include: 1) Alternaria solani (causing early blight of tomatoes), 2) Botryospuaeria berengeriana (causing ring rot of apples), 3) Botrytis cinerea (causing grey mould of tomatoes), 4) Colletotrichum gloeosporioides (causing anthracnose of mangos), 5) Curvularia lunata (which will infect bananas), 6) Fusarium oxysporium (causing fusarium wilt of bananas and watermelons), 7) Geotrichum citri-aurantii (causing sour rot of citrus), 8) Helminthosporium maydis (causing southern corn leaf blight), 9) Penicillium italicum (causing blue mould of citrus), 10) Peronophythora litchii (which will infect litchi), 11) Rhizoctonia solani (causing sheath blight of rice), and 12) Ustilaginoidea virens (causing false smut of rice).
(§3) The antifungal activities of the compounds 1 to 5 were determined by the agar diffusion test. The fungi were activated and respectively seeded onto petri dishes containing PDA solid culture medium, and spread uniformly with T-shaped spreaders. Each compound was dissolved in methanol to give a 50 mg/mL solution. 10 μL of the solution was then added dropwise onto a filter paper (with a diameter of 6 mm) and let dry in the clean bench such that each filter paper contained 500 μg of the compound eventually. The filter papers were then pressed to the pertri dishes mentioned above and left to incubate in dark at 28° C. for 72 or 96 hours, and then the inhibition widths were measured (a inhibition width refers to an average diameter of the zones of inhibition), wherein filter papers containing a same volume of methanol were used as negative controls.

[2] = system: Botryospuaeria berengeriana; test: agar diffusion test, in vitro inhibitory activity; format: cell-based; conditions: 500 μg per 6 mm filter paper, PDA, 28° C., 72 or 96 hours
Text: as §1, §2, §3

Botrytis cinerea = test: agar diffusion test, in vitro inhibitory activity; format: cell-based; conditions: 500 μg per 6 mm filter paper, PDA, 28° C., 72 or 96 hours
Text: as §1, §2, §3

[3] = system: Colletotrichum gloeosporioides; test: agar diffusion test, in vitro inhibitory activity; format: cell-based; conditions: 500 μg per 6 mm filter paper, PDA, 28° C., 72 or 96 hours
Text: as §1, §2, §3

Curvularia lunata = test: agar diffusion test, in vitro inhibitory activity; format: cell-based; conditions: 500 μg per 6 mm filter paper, PDA, 28° C., 72 or 96 hours
Text: as §1, §2, §3

Fusarium oxysporium = test: agar diffusion test, in vitro inhibitory activity; format: cell-based; conditions: 500 μg per 6 mm filter paper, PDA, 28° C., 72 or 96 hours
Text: as §1, §2, §3

[4] = system: Geotrichum citri-aurantii; test: agar diffusion test, in vitro inhibitory activity; format: cell-based; conditions: 500 μg per 6 mm filter paper, PDA, 28° C., 72 or 96 hours
Text: as §1, §2, §3

Helminthosporium maydis = test: agar diffusion test, in vitro inhibitory activity; format: cell-based; conditions: 500 μg per 6 mm filter paper, PDA, 28° C., 72 or 96 hours
Text: as §1, §2, §3

Penicillium italicum = test: agar diffusion test, in vitro inhibitory activity; format: cell-based; conditions: 500 μg per 6 mm filter paper, PDA, 28° C., 72 or 96 hours
Text: as §1, §2, §3

Peronophythora litchii = test: agar diffusion test, in vitro inhibitory activity; format: cell-based; conditions: 500 μg per 6 mm filter paper, PDA, 28° C., 72 or 96 hours
Text: as §1, §2, §3

Rhizoctonia solani = test: agar diffusion test, in vitro inhibitory activity; format: cell-based; conditions: 500 μg per 6 mm filter paper, PDA, 28° C., 72 or 96 hours
Text: as §1, §2, §3

Ustilaginoidea virens = test: agar diffusion test, in vitro inhibitory activity; format: cell-based; conditions: 500 μg per 6 mm filter paper, PDA, 28° C., 72 or 96 hours
Text: as §1, §2, §3

Question: CN(C)C(=S)SSC(=S)N(C)C [Thiram] was tested. Which Infection index ([1]; treating solution 200 mg/L) did it give?
Answer: 29.0 ± 1.9%

Question: What about the Infection index ([1]; treating solution 400 mg/L) of the same molecule?
Answer: 31.4 ± 0.9%

Question: And the Infection index ([1]; treating solution 600 mg/L)?
Answer: 29.2 ± 1.0%

Question: With CCC(C)CCCCCCC(=O)O[C@@H]1C(CO[C@H]2OC(CO)[C@H](O)C(O)C2O)O[C@H](O[C@H]2OC(COC(C)=O)[C@@H](O)C(O)C2O)C(OC(=O)CCC(C)CC)C1OC(=O)C(C)CC (single isomer, unassigned) [Compound 5, 6-O-β-L-mannosyl-3-O-(2-methylbutyryl)-4-O-(8-methyldecanoyl)-2-O-(4-methylhexanoyl)-6′-O-acetyltrehalose] as the molecule, how does the Zone of inhibition (Alternaria solani) read?
Answer: 10 mm

Question: What about the Zone of inhibition [2] of the same molecule?
Answer: 8 mm

Question: What about the Zone of inhibition (Botrytis cinerea) of the same molecule?
Answer: 9 mm

Question: And the Zone of inhibition [3]?
Answer: 8 mm

Question: And the Zone of inhibition (Curvularia lunata)?
Answer: 16 mm

Question: And the Zone of inhibition (Fusarium oxysporium)?
Answer: 8 mm

Question: What about the Zone of inhibition [4] of the same molecule?
Answer: 15 mm

Question: And the Zone of inhibition (Helminthosporium maydis)?
Answer: 18 mm

Question: What about the Zone of inhibition (Penicillium italicum) of the same molecule?
Answer: 14 mm

Question: What about the Zone of inhibition (Peronophythora litchii) of the same molecule?
Answer: 10 mm

Question: What about the Zone of inhibition (Rhizoctonia solani) of the same molecule?
Answer: 12 mm

Question: What about the Zone of inhibition (Ustilaginoidea virens) of the same molecule?
Answer: 16 mm

Question: CCCCCCCC(=O)O[C@@H]1C(CO[C@H]2OC(CO)[C@H](O)[C@H](O)C2O)O[C@H](O[C@H]2OC(CO)[C@@H](O)[C@H](O)C2O)C(OC(=O)CCC(C)CC)[C@H]1OC(=O)C(C)CC (stereo partly drawn) [Compound 4] was tested. Which Zone of inhibition (Alternaria solani) did it give?
Answer: 12 mm

Question: What about the Zone of inhibition [2] of the same molecule?
Answer: 10 mm

Question: What about the Zone of inhibition (Botrytis cinerea) of the same molecule?
Answer: 10 mm

Question: What about the Zone of inhibition [3] of the same molecule?
Answer: 14 mm

Question: What about the Zone of inhibition (Curvularia lunata) of the same molecule?
Answer: 15 mm

Question: What about the Zone of inhibition (Fusarium oxysporium) of the same molecule?
Answer: 10 mm

Question: And the Zone of inhibition [4]?
Answer: 12 mm

Question: What about the Zone of inhibition (Helminthosporium maydis) of the same molecule?
Answer: 18 mm

Question: And the Zone of inhibition (Penicillium italicum)?
Answer: 18 mm

Question: And the Zone of inhibition (Peronophythora litchii)?
Answer: 12 mm

Question: And the Zone of inhibition (Rhizoctonia solani)?
Answer: 18 mm

Question: And the Zone of inhibition (Ustilaginoidea virens)?
Answer: 20 mm

Question: Which Zone of inhibition (Alternaria solani) does the source give for CCCCCCCCCC(=O)O[C@@H]1C(CO[C@H]2OC(CO)[C@H](O)[C@H](O)C2O)O[C@H](O[C@H]2OC(CO)[C@@H](O)[C@H](O)C2O)C(OC(=O)CCC(C)CC)[C@H]1OC(=O)C(C)CC (stereo partly drawn) [Compound 2, 4-O-decanoyl-6-O-β-L-mannosyl-3-O-(2-methylbutyryl)-2-O-(4-methylhexanoyl)trehalose] here?
Answer: 14 mm

Question: What about the Zone of inhibition [2] of the same molecule?
Answer: 14 mm

Question: And the Zone of inhibition (Botrytis cinerea)?
Answer: 14 mm

Question: What about the Zone of inhibition [3] of the same molecule?
Answer: 10 mm

Question: And the Zone of inhibition (Curvularia lunata)?
Answer: 15 mm

Question: What about the Zone of inhibition (Fusarium oxysporium) of the same molecule?
Answer: 12 mm

Question: What about the Zone of inhibition [4] of the same molecule?
Answer: 15 mm

Question: What about the Zone of inhibition (Helminthosporium maydis) of the same molecule?
Answer: 18 mm

Question: And the Zone of inhibition (Penicillium italicum)?
Answer: 22 mm

Question: What about the Zone of inhibition (Peronophythora litchii) of the same molecule?
Answer: 12 mm

Question: What about the Zone of inhibition (Rhizoctonia solani) of the same molecule?
Answer: 16 mm

Question: And the Zone of inhibition (Ustilaginoidea virens)?
Answer: 20 mm

Question: CCC(C)CCCCCCC(=O)O[C@@H]1C(CO[C@H]2OC(CO)[C@H](O)[C@H](O)C2O)O[C@H](O[C@H]2OC(CO)[C@@H](O)[C@H](O)C2O)C(OC(=O)CCC(C)CC)[C@H]1OC(=O)C(C)CC (stereo partly drawn) [Compound 1, 6-O-β-L-mannosyl-3-O-(2-methylbutyryl)-4-O-(8-methyldecanoyl)-2-O-(4-methylhexanoyl)trehalose] was tested. Which Zone of inhibition (Alternaria solani) did it give?
Answer: 12 mm

Question: What about the Zone of inhibition [2] of the same molecule?
Answer: 16 mm

Question: What about the Zone of inhibition (Botrytis cinerea) of the same molecule?
Answer: 15 mm

Question: What about the Zone of inhibition [3] of the same molecule?
Answer: 12 mm

Question: And the Zone of inhibition (Curvularia lunata)?
Answer: 12 mm

Question: And the Zone of inhibition (Fusarium oxysporium)?
Answer: 10 mm

Question: And the Zone of inhibition [4]?
Answer: 17 mm

Question: And the Zone of inhibition (Helminthosporium maydis)?
Answer: 22 mm

Question: And the Zone of inhibition (Penicillium italicum)?
Answer: 20 mm

Question: And the Zone of inhibition (Peronophythora litchii)?
Answer: 13 mm

Question: What about the Zone of inhibition (Rhizoctonia solani) of the same molecule?
Answer: 18 mm

Question: What about the Zone of inhibition (Ustilaginoidea virens) of the same molecule?
Answer: 22 mm

From patent US20190166835A1, “Fungal Trisaccharide Ester Compounds and Use Thereof in Preparing Agents for Preventing and Controlling Plant Fungal Diseases” (SOUTH CHINA BOTANICAL GARDEN, CHINESE ACADEMY OF SCIENCES, priority 2017, published 2019)
